Measurements: US20130345257A1, “COMPOSITION FOR LUPUS NEPHRITIS AND METHODS OF MAKING AND USING THE SAME” (The Regents of the University of California, priority 2012, published 2013)
“Also recorded” adds a separate entry of the source.

What was measured:
Type in all cases: in vivo, mouse
[1] = test system: lupus nephritis in BWF1 mice; experiment: Preventive treatment of pre-nephritic BWF1 mice (survival, proteinuria, creatinine, anti-dsDNA, renal histology, IgG/C3 deposition); conditions: for Serum/plasma IgG anti-dsDNA antibody levels / Prevention of proteinuria: preventive treatment; for Serum/plasma IgG anti-dsDNA antibody levels: LAQ 1 or 25 mg/kg; for Prevention of proteinuria: both LAQ doses (1, 25 mg/kg); for Mice with proteinuria at 32 wks. of age: water 50%, p<0.0001; for Glomerular deposition of Ig and C3: treated prior to onset of clinical nephritis, vs water group p<0.001
Procedure: Clinical and immune cell changes were compared in groups of 10-12 BWF1 female mice in the following groups: • Group 1: Water orally 3 times a week for 24 weeks. • Group 2: Laquinimod 1 mg/kg orally 3 times a week for 24 weeks. • Group 3: Laquinimod 25 mg/kg orally 3 times a week for 24 weeks. • Group 4: Mycophenolate Mofetil 30 mg/kg orally […] for 24 weeks. • Group 5: Mycophenolate Mofetil 100 mg/kg orally […] for 24 weeks (“MMF 100”).
Preventive Group: 11-week old (pre-nephritic) BWF1 female mice were treated orally 3 times a week with a) water; b) laquinimod at 1 mg/kg (LAQ1, low dose) or c) 25 mg/kg (LAQ25, high dose) (Teva Pharmaceutical); or 5 times a week with d) mycophenolate mofetil at 30 mg/kg (MMF30, low dose) or e) 100 mg/kg (MMF100, high dose).
(§1) Proteinuria was evaluated weekly using Albustix (Siemens), serum creatinine using a commercial kit (Arbor Assays) and anti-dsDNA IgG antibodies by ELISA as described previously (10). See, e.g., FIGS. 1 and 2.
(§2) Kidney specimens of BWF1 mice (37 weeks of age in the prevention group or 7 and 11 weeks after institution of early or late therapies) were embedded in OCT compound and snap frozen. 4-5 μm an sections were air-dried, fixed with cold acetone and incubated with blocking buffer (anti-CD16/CD32 (1/50), 2% normal goat or rat serum, 2% BSA).
Immunoglobulin G and C3 complement glomerular deposition were investigated by incubation of cryosections with fluoroscein isothiocyanate (FITC)-conjugated goat anti-mouse IgG (1:50) (Sigma) or rat anti-mouse C3 (1:800) (Solulink) in blocking buffer for 2 hours at room temperature. Images were acquired using Nikon Eclipse TE2000-U microscope and MetaMorph 6.3 software (Sunnyvale, Calif.). Quantification of the area immunostained in tissue sections was made using the computer image analysis software ImageJ (rsbinfonihgov</>ij</>indexhtml). For histology, kidney sections were fixed in 10% formalin and 2 μm-paraffin sections were stained with H&E, PAS and methenamine silver (Jones) for histological analysis.
(§3) Histological analysis of glomerular pathology was done by an investigator blinded to treatment group and included acute inflammatory features (endocapillary hypercellularity, mesangial hypercellularity, cellular necrosis, cellular crescents, and interstitial inflammation), and chronic features (global glomerulosclerosis (GS), focal segmental glomerulosclerosis (FSGS), and interstitial fibrosis or tubular atrophy (IF/TA)). The severity of each feature was graded as 0 (absent), 1 (lesions involving up to 25% of the component evaluated), 2 (lesions in 26-50% evaluated) or 3 (lesions in >50%) in each field of the microscope at 400× magnification. The weighted total score of the clinical features was based on this formula: [endocapillary hypercellularity+mesengial hypercellularity+(cellular necrosis*2)+(cellular crescents*2)+interstitial inflammation)/5]+(GS+FSGS+IFTA)/3, with maximum score 5.2. A minimum of 25 glomeruli, of at least 10 mice per group, were scored. Scores from each individual mouse were added and averaged to yield the glomerulonephritis score.

[2] = test system: BWF1 mice with anti-dsDNA and low proteinuria (PU^lo); experiment: Therapeutic treatment of BWF1 mice with anti-dsDNA and low proteinuria (PU^lo); conditions: LAQ 25 mg/kg, MMF 100 mg/kg
Procedure: Therapeutic Groups: a low proteinuria group)(PU^lo) consisted of mice with IgG anti-dsDNA detectable in serum and proteinuria ≦100 mg/dL, and a high proteinuria group (PU^hi) had proteinuria ≧300 mg/dL.
as §1, §2
as §3, with “The severity of each feature was graded as 0 (absent), 1 (lesions involving up to 25% of the component evaluated), 2 (lesions in 26-50% evaluated) or 3 (lesions in >50%) in each field of the microscope at 400× magnification.” left out

spleen cell subsets = experiment: Spleen cell subsets of treated BWF1 mice by flow cytometry; conditions: for Frequency of cells ± SEM: CD4+ / Frequency of cells ± SEM: CD8+ / Frequency of cells ± SEM: CD11b^+Ly6C^+Ly6G+ / Frequency of cells ± SEM: CD11b^+Ly6C^+Ly6G− / Frequency of cells ± SEM: CD11b^+MDSC−(Mφ) / Frequency of cells ± SEM: CD11c^+CD11b+(DC) / Frequency of cells ± SEM: CD11c^+CD11b− (DC) / Frequency of cells ± SEM: CD4^+CD25^+Foxp3^+ / Frequency of cells ± SEM: CD19+: spleen, LAQ 25 mg/kg, MMF 100 mg/kg; for Frequency of cells ± SEM: CD4^+CD25^+Foxp3^+ / Frequency of cells ± SEM: CD19+: in % (unit assumed)
[3] = spleen at age 32 weeks, oral gavage from age 11 weeks, LAQ 25 mg/kg 3 days per week, MMF 100 mg/kg 5 days/week
[4] = Preventive, 25 weeks after treatment
[5] = Therapeutic (PU^lo), 10 wks after initiation of therapy

CCN(C(=O)c1c(O)c2c(Cl)cccc2n(C)c1=O)c1ccccc1 [LAQ, 5-chloro-N-ethyl-4-hydroxy-1-methyl-2-oxo-N-phenyl-1,2-dihydroquinoline-3-carboxamide]
Survival vs. controls ([1]; BWF1 females treated orally for 24 weeks before disease, LAQ 1 and 25 mg/kg, MMF 100 mg/kg, p=0.028): better | Development of proteinuria six weeks after the treatment ([1]; FIG. 5, treated three days of each week prior to proteinuria): did not develop proteinuria | Survival, low dose treatment ([1]; LAQ 1 mg/kg 3 days a week, MMF 30 mg/kg 5 days a week, prior to anti-dsDNA and proteinuria, vs water): significantly better; also recorded: still alive at 45 weeks | Chronic scarring (GS, FSGS, IFTA) in kidney ([1]; higher doses, treated before proteinuria, vs water): less | Onset of proteinuria beyond 32 weeks up until about 42 weeks ([1]; low dose: LAQ 1 mg/kg 3 times a week, MMF 30 mg/kg): completely prevented onset of proteinuria | Serum/plasma IgG anti-dsDNA antibody levels ([1]; MMF 100 mg/kg, vs water): suppressed; also recorded: significantly lower; also recorded: lower anti-DNA levels | Serum/plasma IgG anti-dsDNA antibody levels ([1]; MMF 100 mg/kg, vs water, listed as Laquinimod): suppressed | Prevention of proteinuria ([1]; MMF 100 mg/kg): equivalent to MMF100 and completely prevented proteinuria and prevented the appearance of proteinuria and none | Prevention of proteinuria ([1]; MMF 100 mg/kg, listed as Laquinimod): equivalent to MMF 100 | Kidney specimens (histology, glomerular IgG and C3 deposits) ([1]; preventive, LAQ 25 mg/kg, MMF 100 mg/kg, after more than 50% of controls developed high proteinuria): largely unremarkable | Rise in serum creatinine levels ([1]; preventive, LAQ 25 mg/kg, after 18 weeks of treatment): significantly delayed; also recorded: prevented a rise in serum creatinine | Mice with proteinuria at 32 wks. of age ([1]; treated before disease, LAQ 1 and 25 mg/kg, MMF 100 mg/kg): zero | Mice with proteinuria at 32 wks. of age ([1]; treated before disease, LAQ 1 and 25 mg/kg, MMF 100 mg/kg, listed as Laquinimod): none | Mean total histologic score (renal histology) ([1]; treated before disease, MMF 100 mg/kg, water 7.8, p<0.01): 1.0 | Glomerular deposition of Ig and C3 [1]: in the normal range; also recorded: significantly decreased | Glomerular deposition of Ig and C3 ([1]; listed as laquinimod): in the normal range | Anti-dsDNA ([2]; PU^lo arm): not significantly decreased | Increase of proteinuria ([2]; PU^lo arm): prevented increased proteinuria | Rise in serum creatinine ([2]; PU^lo arm): prevented | Survival ([2]; PU^lo arm): significantly prolonged survival | Reduction of endo-capillary hypercellularity, interstitial inflammation, and focal segmental glomerulosclerosis ([2]; PU^lo mice): equally effective | Percent of CD4^+ Tregs (CD4^+CD25^+Foxp3^+) in splenocytes (spleen cell subsets; FIG. 8): increased | Numbers of two putative regulatory cells, CD4^+CD25^+Foxp3^+ Treg and CD11b^+Ly6C^intGR-1^+ myeloid MM (spleen cell subsets; LAQ compared to MMF): increased | Percentage of CD8^+ cells in spleen (spleen cell subsets; compared to the control mice, listed as laquinimod): did not | Numbers of MM (splenic PBMC) (spleen cell subsets; mouse, in vivo): significantly reduced | Frequency of cells ± SEM: CD11b^+CD103^− (MΦ^1) (spleen cell subsets; [3]): 2.63 ± 0.30^A | Frequency of cells ± SEM: CD11b^+Ly6C^intGr-1^− (MΦ^3) (spleen cell subsets; [3]): 18.48 ± 2.31^A | Frequency of cells ± SEM: CD19^+CD23^+CD21^+IgM^hi (T2) (spleen cell subsets; [3]): 51.19 ± 4.32^A | Frequency of cells ± SEM: CD4+ (spleen cell subsets; [4]): 20.2 ± 0.5 | Frequency of cells ± SEM: CD8+ (spleen cell subsets; [4]): 12.3 ± 0.7 | Frequency of cells ± SEM: CD11b^+Ly6C^+Ly6G+ (spleen cell subsets; [4]): 31.7 ± 3.6 | Frequency of cells ± SEM: CD11b^+Ly6C^+Ly6G− (spleen cell subsets; [4]): 37.5 ± 2.1 | Frequency of cells ± SEM: CD11b^+MDSC−(Mφ) (spleen cell subsets; [4]): 25.2 ± 1.7 | Frequency of cells ± SEM: CD11c^+CD11b+(DC) (spleen cell subsets; [4]): 0.7 ± 0.1 | Frequency of cells ± SEM: CD11c^+CD11b− (DC) (spleen cell subsets; [4]): 3.8 ± 0.2 | Frequency of cells ± SEM: CD4^+CD25^+Foxp3^+ (spleen cell subsets; [4]): 9.4 ± 0.6 | Frequency of cells ± SEM: CD19+ (spleen cell subsets; [4]): 68.0 ± 3.8 | Frequency of cells ± SEM: CD4+ (spleen cell subsets; [5]): 21.3 ± 1.3 | Frequency of cells ± SEM: CD8+ (spleen cell subsets; [5]): 24.9 ± 2.9 | Frequency of cells ± SEM: CD11b^+Ly6C^+Ly6G+ (spleen cell subsets; [5]): 33.2 ± 5.6 | Frequency of cells ± SEM: CD11b^+Ly6C^+Ly6G− (spleen cell subsets; [5]): 38.7 ± 1.9 | Frequency of cells ± SEM: CD11b^+MDSC−(Mφ) (spleen cell subsets; [5]): 25.6 ± 3.3 | Frequency of cells ± SEM: CD11c^+CD11b+(DC) (spleen cell subsets; [5]): 1.0 ± 0.2 | Frequency of cells ± SEM: CD11c^+CD11b− (DC) (spleen cell subsets; [5]): 4.5 ± 0.4 | Frequency of cells ± SEM: CD4^+CD25^+Foxp3^+ (spleen cell subsets; [5]): 2.2 ± 0.1 | Frequency of cells ± SEM: CD19+ (spleen cell subsets; [5]): 51.1 ± 3.3 | Percentage of CD4^+ T cells in spleen (spleen cell subsets; vs control mice, listed as laquinimod): did not
